Experimental data from article PMC5826917, “A small molecule inhibitor of Nicotinamide N-methyltransferase for the treatment of metabolic disorders” (Scientific Reports, 2018).

Tests used:
[1] = target: Muscarinic Receptor 3 (CHRM3) (Homo sapiens, UniProt P20309); assay: Selectivity panel: CHRM3; type: cell-based
Protocol: (§1) Supplement 41598_2018_22081_MOESM1_ESM.docx, table 2: Supplementary table 2: Selectivity profile of JBSNF-000088 (at 10 µM) vs a panel of 34 receptors, channels and enzymes. | column: E% (agonistic); I% (antagonistic or inhibitory)

[2] = target: Serotonin Receptor 2A (5HT2A) (Homo sapiens, UniProt P28223); assay: Selectivity panel: 5HT2A; type: cell-based
Serotonin Receptor 2A (5HT2A), sequence (P28223 whole entry): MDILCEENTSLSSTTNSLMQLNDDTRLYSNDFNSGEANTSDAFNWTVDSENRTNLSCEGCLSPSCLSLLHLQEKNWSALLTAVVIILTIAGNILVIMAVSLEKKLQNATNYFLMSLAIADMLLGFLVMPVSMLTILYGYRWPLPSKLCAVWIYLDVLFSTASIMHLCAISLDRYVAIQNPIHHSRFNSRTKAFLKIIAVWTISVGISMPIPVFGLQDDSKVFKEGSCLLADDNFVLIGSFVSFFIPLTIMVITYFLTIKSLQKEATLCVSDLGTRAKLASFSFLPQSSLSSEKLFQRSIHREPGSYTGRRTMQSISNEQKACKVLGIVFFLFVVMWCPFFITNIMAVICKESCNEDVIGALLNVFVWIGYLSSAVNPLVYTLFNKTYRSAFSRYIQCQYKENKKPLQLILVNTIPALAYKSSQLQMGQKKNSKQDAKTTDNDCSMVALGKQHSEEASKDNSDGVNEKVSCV
Protocol: as §1

[3] = target: hERG (Homo sapiens, UniProt Q12809); details: 10 µM
[4] = target: Histamine Receptor 2 (H2) (Homo sapiens, UniProt P25021); assay: Selectivity panel: H2; type: cell-based
Histamine Receptor 2 (H2), sequence (P25021 whole entry): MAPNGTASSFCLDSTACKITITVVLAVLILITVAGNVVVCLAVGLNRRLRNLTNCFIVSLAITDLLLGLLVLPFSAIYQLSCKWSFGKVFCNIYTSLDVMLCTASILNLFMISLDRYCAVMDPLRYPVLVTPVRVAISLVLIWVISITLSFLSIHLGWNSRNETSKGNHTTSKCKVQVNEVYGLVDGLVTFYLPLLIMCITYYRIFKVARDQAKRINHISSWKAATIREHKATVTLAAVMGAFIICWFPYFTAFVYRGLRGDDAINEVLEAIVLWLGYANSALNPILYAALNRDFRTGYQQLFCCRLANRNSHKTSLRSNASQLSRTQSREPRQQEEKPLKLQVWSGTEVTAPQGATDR

[5] = target: Muscarinic Receptor 2 (CHRM2) (Homo sapiens, UniProt P08172); assay: Selectivity panel: CHRM2; type: cell-based
Muscarinic Receptor 2 (CHRM2), sequence (P08172 whole entry): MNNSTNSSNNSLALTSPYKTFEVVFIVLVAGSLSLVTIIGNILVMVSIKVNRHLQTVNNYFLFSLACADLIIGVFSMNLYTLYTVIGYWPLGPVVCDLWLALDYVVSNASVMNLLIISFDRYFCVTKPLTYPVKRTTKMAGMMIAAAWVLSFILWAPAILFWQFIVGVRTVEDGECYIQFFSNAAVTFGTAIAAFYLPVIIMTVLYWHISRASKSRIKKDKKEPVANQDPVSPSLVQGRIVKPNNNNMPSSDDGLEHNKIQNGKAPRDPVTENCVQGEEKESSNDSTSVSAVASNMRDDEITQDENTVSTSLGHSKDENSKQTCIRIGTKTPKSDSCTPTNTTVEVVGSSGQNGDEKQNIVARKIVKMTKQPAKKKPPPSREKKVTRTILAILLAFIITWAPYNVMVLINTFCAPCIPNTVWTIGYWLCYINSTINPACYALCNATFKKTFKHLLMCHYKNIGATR
Protocol: as §1

[6] = target: NaV1.5 (Homo sapiens, UniProt Q14524); assay: NaV1.5 assay; details: tested at 30 µM, result printed @ 10 µM; data not shown
[7] = system: Cl- Channel; assay: Selectivity panel: Cl- channel; type: binding; details: 10 µM
[8] = system: Ca2+ Channel (L-Type DHP Site); assay: Selectivity panel: Ca2+ channel; type: binding; details: 10 µM
[9] = in vitro; details: mouse, microsomes, Metabolic stability mouse microsomes (% remaining)
[10] = target: cGMP-inhibited 3,5-cyclic phosphodiesterase A (PDEA3) (Homo sapiens, UniProt Q14432); assay: Selectivity panel: PDEA3; type: biochemical; details: read-out: I% (antagonistic or inhibitory), PDEA3
[11] = system: endogenous NNMT activity in differentiated 3T3L1 cells; assay: Cell based 3T3L1 assay (MNA levels by LC-MS/MS); set-up: species or system mouse
Protocol: PE-Sciex API-4000 triple quadrupole (PerkinElmerSciex Instruments, Boston, MA) mass spectrometer was employed for this analysis. […] Detection of the ions was performed in the multiple reaction monitoring (MRM) mode, monitoring the transition of the m/z 137 precursor ion to the m/z 92 product ion for MNA and m/z 141 precursor ion to the m/z 84 product ion for d4-MNA (internal standard).
The supernatant was separated and transferred to pre-labeled HPLC vials and analyzed by LC-MS/MS system.

[12] = target: Mono Amine Oxydase A (MAO-A) (Homo sapiens, UniProt P21397); assay: Selectivity panel: MAO-A; type: biochemical; details: read-out: I% (antagonistic or inhibitory), MAO-A
[13] = target: Muscarinic Receptor 1 (CHRM1) (Homo sapiens, UniProt P11229); assay: Selectivity panel: CHRM1; type: cell-based
Muscarinic Receptor 1 (CHRM1), sequence (P11229 whole entry): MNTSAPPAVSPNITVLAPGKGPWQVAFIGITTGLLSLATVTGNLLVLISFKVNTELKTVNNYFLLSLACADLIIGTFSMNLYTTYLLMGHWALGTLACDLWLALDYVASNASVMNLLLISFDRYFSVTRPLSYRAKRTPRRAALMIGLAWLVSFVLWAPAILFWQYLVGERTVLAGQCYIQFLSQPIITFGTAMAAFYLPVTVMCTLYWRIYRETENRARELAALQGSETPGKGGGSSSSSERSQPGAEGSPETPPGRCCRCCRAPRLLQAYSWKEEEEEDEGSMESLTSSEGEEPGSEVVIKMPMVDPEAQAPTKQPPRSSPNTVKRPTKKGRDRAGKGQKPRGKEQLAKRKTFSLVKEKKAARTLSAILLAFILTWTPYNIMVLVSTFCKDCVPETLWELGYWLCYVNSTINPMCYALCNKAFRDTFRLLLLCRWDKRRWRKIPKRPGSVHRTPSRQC
Protocol: as §1

[14] = target: Norepinephrin (Noradrenalin) Transporter (Homo sapiens, UniProt P23975); assay: Selectivity panel: norepinephrine transporter; type: binding; details: read-out: I% (antagonistic or inhibitory), Norepinephrin (Noradrenalin) Transporter
Norepinephrin (Noradrenalin) Transporter, sequence (P23975 whole entry): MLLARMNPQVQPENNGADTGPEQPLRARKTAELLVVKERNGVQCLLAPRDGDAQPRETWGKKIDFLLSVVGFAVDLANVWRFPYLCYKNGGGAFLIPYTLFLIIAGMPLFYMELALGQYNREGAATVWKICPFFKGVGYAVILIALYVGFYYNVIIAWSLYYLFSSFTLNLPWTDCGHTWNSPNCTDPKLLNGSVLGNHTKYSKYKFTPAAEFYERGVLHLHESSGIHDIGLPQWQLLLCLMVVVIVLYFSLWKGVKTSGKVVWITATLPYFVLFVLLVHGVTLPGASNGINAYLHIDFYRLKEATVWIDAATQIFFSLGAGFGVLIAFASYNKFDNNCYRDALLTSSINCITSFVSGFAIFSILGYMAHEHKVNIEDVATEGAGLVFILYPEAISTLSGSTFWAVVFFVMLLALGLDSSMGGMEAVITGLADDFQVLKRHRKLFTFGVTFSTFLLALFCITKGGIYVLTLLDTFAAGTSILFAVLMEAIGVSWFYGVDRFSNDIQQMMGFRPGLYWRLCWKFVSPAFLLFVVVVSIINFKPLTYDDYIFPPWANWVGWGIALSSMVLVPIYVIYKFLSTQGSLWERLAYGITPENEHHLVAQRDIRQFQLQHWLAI
Protocol: Supplement 41598_2018_22081_MOESM1_ESM.docx, table 2: Supplementary table 2: Selectivity profile of JBSNF-000088 (at 10 µM) vs a panel of 34 receptors, channels and enzymes. | column: I% (antagonistic or inhibitory)

[15] = target: Adrenoreceptor beta 1 (ADRB1) (Homo sapiens, UniProt P08588); assay: Selectivity panel: ADRB1; type: cell-based
Adrenoreceptor beta 1 (ADRB1), sequence (P08588 whole entry): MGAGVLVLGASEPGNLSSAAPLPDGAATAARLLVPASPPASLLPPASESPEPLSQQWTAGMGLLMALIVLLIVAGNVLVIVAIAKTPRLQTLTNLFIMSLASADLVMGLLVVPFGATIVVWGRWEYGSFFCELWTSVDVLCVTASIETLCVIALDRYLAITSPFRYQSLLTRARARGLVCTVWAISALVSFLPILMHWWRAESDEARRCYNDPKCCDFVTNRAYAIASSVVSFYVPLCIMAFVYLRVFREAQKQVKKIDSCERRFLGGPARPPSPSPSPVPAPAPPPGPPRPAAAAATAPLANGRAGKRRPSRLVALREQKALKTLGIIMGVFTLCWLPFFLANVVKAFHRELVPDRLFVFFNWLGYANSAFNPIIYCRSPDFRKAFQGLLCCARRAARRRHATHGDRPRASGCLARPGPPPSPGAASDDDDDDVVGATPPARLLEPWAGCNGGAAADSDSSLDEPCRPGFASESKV

[16] = system: Glycine Receptor (strychnine-sensitive); assay: Selectivity panel: glycine receptor; type: binding; details: 10 µM
[17] = system: K+ Channel Voltage Dependent; assay: Selectivity panel: K+ channel; type: binding; details: 10 µM
[18] = target: Adrenoreceptor alpha 2A (ADRA2A) (Homo sapiens, UniProt P08913); assay: Selectivity panel: ADRA2A; type: cell-based
Adrenoreceptor alpha 2A (ADRA2A), sequence (P08913 whole entry): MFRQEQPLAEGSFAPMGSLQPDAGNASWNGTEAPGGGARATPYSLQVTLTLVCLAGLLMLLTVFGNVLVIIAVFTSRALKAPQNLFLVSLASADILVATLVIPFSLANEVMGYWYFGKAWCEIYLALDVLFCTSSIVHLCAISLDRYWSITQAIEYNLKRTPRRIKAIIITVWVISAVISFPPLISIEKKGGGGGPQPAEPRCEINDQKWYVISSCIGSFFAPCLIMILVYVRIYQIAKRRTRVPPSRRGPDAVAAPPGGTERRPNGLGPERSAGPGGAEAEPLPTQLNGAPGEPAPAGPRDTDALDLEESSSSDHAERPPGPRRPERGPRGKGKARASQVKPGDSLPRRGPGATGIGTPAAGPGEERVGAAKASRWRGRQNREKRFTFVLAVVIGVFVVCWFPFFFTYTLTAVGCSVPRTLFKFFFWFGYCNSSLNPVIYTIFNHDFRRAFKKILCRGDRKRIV
Protocol: as §1

[19] = target: Histamine Receptor 1 (H1) (Homo sapiens, UniProt P35367); assay: Selectivity panel: H1; type: cell-based
Histamine Receptor 1 (H1), sequence (P35367 whole entry): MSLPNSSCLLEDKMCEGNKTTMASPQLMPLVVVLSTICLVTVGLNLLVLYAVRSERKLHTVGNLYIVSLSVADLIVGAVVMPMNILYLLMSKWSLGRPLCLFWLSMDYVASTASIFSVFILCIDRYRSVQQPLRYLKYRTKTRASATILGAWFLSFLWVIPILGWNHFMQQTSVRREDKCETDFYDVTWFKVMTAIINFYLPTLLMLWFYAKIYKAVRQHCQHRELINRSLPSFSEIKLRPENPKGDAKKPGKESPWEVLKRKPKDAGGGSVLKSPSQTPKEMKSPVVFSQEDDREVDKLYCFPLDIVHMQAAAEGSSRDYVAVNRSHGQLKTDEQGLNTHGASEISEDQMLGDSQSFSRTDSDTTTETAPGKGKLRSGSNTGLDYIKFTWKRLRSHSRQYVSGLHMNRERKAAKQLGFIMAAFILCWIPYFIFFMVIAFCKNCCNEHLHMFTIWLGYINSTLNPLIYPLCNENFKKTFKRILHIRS

[20] = in vitro; details: human, hepatocytes
[21] = target: Dopamine Receptor 2 Short (D2S) (Homo sapiens, UniProt P14416); assay: Selectivity panel: D2S; type: cell-based
Dopamine Receptor 2 Short (D2S), sequence (P14416 1-414 isoform P14416-2): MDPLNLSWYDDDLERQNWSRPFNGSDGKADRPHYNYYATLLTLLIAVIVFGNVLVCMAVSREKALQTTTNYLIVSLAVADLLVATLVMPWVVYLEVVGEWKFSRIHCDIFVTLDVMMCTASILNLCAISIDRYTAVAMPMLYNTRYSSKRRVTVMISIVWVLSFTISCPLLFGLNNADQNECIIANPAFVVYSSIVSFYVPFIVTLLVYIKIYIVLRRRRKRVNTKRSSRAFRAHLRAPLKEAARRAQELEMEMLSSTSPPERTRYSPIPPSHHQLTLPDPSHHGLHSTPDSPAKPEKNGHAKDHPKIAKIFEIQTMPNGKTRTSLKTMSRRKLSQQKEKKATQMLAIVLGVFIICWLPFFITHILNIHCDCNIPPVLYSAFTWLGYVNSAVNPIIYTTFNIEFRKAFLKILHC
Protocol: as §1

Muscarinic Receptor 3 (CHRM3), sequence (P20309 whole entry): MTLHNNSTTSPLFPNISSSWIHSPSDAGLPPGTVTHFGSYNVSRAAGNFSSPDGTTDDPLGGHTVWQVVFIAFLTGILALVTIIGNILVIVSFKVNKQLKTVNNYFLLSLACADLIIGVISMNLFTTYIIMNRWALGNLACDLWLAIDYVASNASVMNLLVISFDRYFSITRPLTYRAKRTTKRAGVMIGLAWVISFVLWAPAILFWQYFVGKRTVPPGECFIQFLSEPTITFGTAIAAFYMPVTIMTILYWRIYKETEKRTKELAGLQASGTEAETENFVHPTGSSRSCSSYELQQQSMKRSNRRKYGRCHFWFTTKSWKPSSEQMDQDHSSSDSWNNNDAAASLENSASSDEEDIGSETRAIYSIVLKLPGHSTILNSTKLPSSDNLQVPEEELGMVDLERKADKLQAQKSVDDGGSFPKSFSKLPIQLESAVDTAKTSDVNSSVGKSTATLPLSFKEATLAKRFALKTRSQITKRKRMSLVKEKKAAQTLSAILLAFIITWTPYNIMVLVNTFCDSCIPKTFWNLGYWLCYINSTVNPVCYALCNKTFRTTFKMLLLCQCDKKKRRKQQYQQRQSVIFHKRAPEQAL

Which results are given for `COc1ccc(C(N)=O)cn1` [JBSNF-000088, 6-methoxynicotinamide]?
E% (agonistic), CHRM3 ([1]; 10 µM): -1%; inhibition at 10 µM ([1]; read-out: I% (antagonistic or inhibitory), CHRM3): 21%; E% (agonistic), 5HT2A ([2]; 10 µM): 3%; inhibition at 10 µM ([2]; read-out: I% (antagonistic or inhibitory), 5HT2A): -9%; hERG inhibition [3]: < 30%; E% (agonistic), H2 ([4]; 10 µM): -1%; inhibition at 10 µM ([4]; read-out: I% (antagonistic or inhibitory), H2): 6%; E% (agonistic), CHRM2 ([5]; 10 µM): 13%; inhibition at 10 µM ([5]; read-out: I% (antagonistic or inhibitory), CHRM2): 3%; NaV1.5 inhibition [6]: < 30%; I% (antagonistic or inhibitory), Cl- Channel [7]: 8%; I% (antagonistic or inhibitory), Ca2+ Channel (L-Type DHP Site) [8]: 0%; remaining at 0.5 h [9]: > 70%; inhibition at 10 µM [10]: -1%; IC50 ([11]; Mus musculus, 3T3-L1, 24 h treatment, MNA by LC-MS/MS): 6.3 µM; right shift in potency, 3T3L1 cells compared to U2OS cells ([11]; ratio of cellular IC50 values): approximately 4 fold; inhibition at 10 µM [12]: -1%; E% (agonistic), CHRM1 ([13]; 10 µM): -3%; inhibition at 10 µM ([13]; read-out: I% (antagonistic or inhibitory), CHRM1): -7%; inhibition at 10 µM [14]: 9%; E% (agonistic), ADRB1 ([15]; 10 µM): 3%; inhibition at 10 µM ([15]; read-out: I% (antagonistic or inhibitory), ADRB1): -33%; I% (antagonistic or inhibitory), Glycine Receptor (strychnine-sensitive) [16]: -7%; I% (antagonistic or inhibitory), K+ Channel Voltage Dependent [17]: 3%; E% (agonistic), ADRA2A ([18]; 10 µM): 4%; inhibition at 10 µM ([18]; read-out: I% (antagonistic or inhibitory), ADRA2A): -12%; E% (agonistic), H1 ([19]; 10 µM): -2%; inhibition at 10 µM ([19]; read-out: I% (antagonistic or inhibitory), H1): -5%; remaining at 0.5 h [20]: > 70%; E% (agonistic), D2S ([21]; 10 µM): -3%; inhibition at 10 µM ([21]; read-out: I% (antagonistic or inhibitory), D2S): 12%
